In paper PMC12186339, “Assessment of the structure–activity relationship of analogs of the Naegleria fowleri enolase inhibitor HEX” (RSC Medicinal Chemistry, 2025):
Read-outs that look alike come from different tables or passages of the source.

Experiments:
[1] = test system: N. fowleri strain TY (ATCC 30107) trophozoites; test: In vitro growth inhibition of N. fowleri trophozoites (CellTiter-Glo); assay type: cell-based, Naegleria fowleri; details: for EC50: Naegleria fowleri, read-out: N. fowleri EC50
Description: N. fowleri strain TY (ATCC 30107) trophozoites were routinely cultured in T-75 TC-treated flasks at 37 °C and 5% CO2 in media that has been previously described.[10] All compounds described were reconstituted in DMSO for testing, with final concentrations kept at <1% in the assays. To test the inhibitory activity of the compounds on cell growth, 1 × 10^4 cells per mL were seeded in white 96-well plates with 100 μM compound. Cells and compound were incubated at 37 °C and 5% CO2 for 48 hours. CellTiter-Glo reagent (Promega G7570) was then added to each well and luminescence was read using a BioTek Synergy H1 Microplate Reader. […] All reactions were performed in technical triplicate. If growth inhibition was <50% at the concentration tested, EC50 was reported to be above that value.

[2] = Human cell growth inhibition (CellTiter Blue); assay type: cell-based; details: HEK-293, 48 hours, read-out: Human cell line CC50
Description: To determine the amount of agent required to inhibit human cell growth 50% (the CC50 value), human embryonic kidney cells (ATCC HEK-293) were seeded at 5 × 10^4 cells per well in 100 μL of Dulbecco's modified Eagle's medium in tissue culture-treated clear bottom black 96 well plates (Gibco). Cells were incubated with compounds for 48 hours, followed by addition of CellTiter Blue (Promega, Madison, WI, USA) After a 3 hour incubation and equilibration for 15 minutes at room temperature, fluorescence (Ex: 560 nm, EM: 590 nm) was measured and the percentage of growth inhibition was calculated using untreated controls.

NfENO = NfENO (Naegleria fowleri, UniProt A0A6A5BXC3); test: NfENO pyruvate kinase/lactate dehydrogenase-coupled activity assay; assay type: biochemical; details: at 100 μM
Sequence of NfENO (A0A6A5BXC3 entry or part of it): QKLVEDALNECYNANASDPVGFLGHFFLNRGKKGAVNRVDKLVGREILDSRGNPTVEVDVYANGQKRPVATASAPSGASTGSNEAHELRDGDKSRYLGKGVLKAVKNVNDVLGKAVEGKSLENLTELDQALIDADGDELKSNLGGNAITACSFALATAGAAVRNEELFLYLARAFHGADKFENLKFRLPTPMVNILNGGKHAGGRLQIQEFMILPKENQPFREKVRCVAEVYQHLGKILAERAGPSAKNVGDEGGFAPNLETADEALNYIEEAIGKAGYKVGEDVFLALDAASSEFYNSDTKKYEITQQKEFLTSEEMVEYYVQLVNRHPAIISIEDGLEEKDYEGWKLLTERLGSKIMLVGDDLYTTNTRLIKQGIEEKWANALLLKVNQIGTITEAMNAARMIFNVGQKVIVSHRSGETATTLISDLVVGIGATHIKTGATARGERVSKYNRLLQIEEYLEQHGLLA
Description: Using the full-length protein (NF0118810, AmoebaDB, https://amoebadb.org/amoeba/app/), an E. coli codon-optimized construct was designed to express a truncated version of NfENO (residues 44–512) to improve solubility.[10]NfENO was heterologously expressed in BL2(DE3)R3 Rosetta cells and expression induced with 0.5 mM isopropyl-β-D-1-thiogalactopyranoside (IPTG) overnight at 37 °C. Cells were lysed using a lysozyme and 10% Triton X-100 based lysis buffer and purified with Ni-NTA agarose beads (Qiagen). Activity assays were conducted in triplicate using a pyruvate kinase/lactate dehydrogenase-coupled assay. Approximately 75 nM of NfENO in assay buffer (100 mM HEPES, pH 8.5, 3.3 mM MgSO4, 120 mM KCl, 1.75 mM ADP, 1 U pyruvate kinase/lactate dehydrogenase, and 0.4 mM NADH) was added to black 96-well plates. For assays in the presence of inhibitor, compounds were resuspended in DMSO, added to the wells, and incubated with enzyme in assay buffer for 15 minutes at room temperature. DMSO was included as a vehicle control. Assays were initiated by addition of substrate solution (3.75 mM 2-PG) and fluorescence emission at 460 nm after excitation at 360 nm was monitored every 20 seconds for 4 minutes using a Biotek Synergy H1 microplate reader. The rate of fluorescence reduction was measured to monitor the conversion of NADH to NAD+. […]

[3] = ATCC30107, trophozoites, 48 hours

Row | Compound | EC50 ([1]; ATCC30107, 48 h) [µM] | EC50 [1, 3] [µM] | also measured
1 | O=C1C(P(=O)(O)O)CCCN1CCO (stereo not shown) [Compound 3, (1-(2-Hydroxyethyl)-2-oxopiperidin-3-yl)phosphonic acid] | > 25 |  | 
2 | O=C1[C@@H](P(=O)(O)O)[C@@H]2CCCC[C@H]2CN1O [Compound 5, ((4S,4aR,8aR)-2-Hydroxy-3-oxodecahydroisoquinolin-4-yl)phosphonic acid] |  | > 25 | 
3 | O=C1C(P(=O)(O)O)CCCN1O (stereo not shown) [HEX, (1-hydroxy-2-oxopiperidin-3-yl)phosphonic acid, reference compound] | 0.21 ± 0.02 |  | CC50 at 48 h [2]: > 100 µM
4 | O=C1C(S(=O)(=O)O)CCCN1O (stereo not shown) [Compound 4, 1-Hydroxy-2-oxopiperidine-3-sulfonic acid] |  | > 25 | 
5 | O=C1C(P(=O)(O)O)c2ccccc2CN1O (stereo not shown) [Compound 2, (2-Hydroxy-3-oxo-1,2,3,4-tetrahydroisoquinolin-4-yl)phosphonic acid] |  | > 25 | activity on N. fowleri growth ([1]; at higher concentrations than 25 μM (100 μM screen), 48 hours): modest activity; CC50 at 48 h ([2]; HEK-293 cells): > 25 µM
6 | NN1CCCC(P(=O)(O)O)C1=O (stereo not shown) [Compound 1, (1-Amino-2-oxopiperidin-3-yl)phosphonic acid] | > 25 |  | 
7 | O=C1NCCCC1P(=O)(O)O (stereo not shown) [Compound 6, (2-Oxopiperidin-3-yl)phosphonic acid] | > 25 |  | effect on NfENO (NfENO): no effect
8 | O=C1SCCCC1P(=O)(O)O (stereo not shown) [Compound 7, (2-Oxotetrahydro-2H-thiopyran-3-yl)phosphonic acid] | > 25 |  | effect on NfENO (NfENO): no effect
